# Measured values: paper PMC6403188, “Species-Specific Structural Requirements of Alpha-Branched Trehalose Diester Mincle Agonists” (Frontiers in Immunology, 2019)
# What was measured:
# THP-1 cells = experiment: TNFα production from THP-1 cells (ELISA); type: cell-based, human; conditions: plate-coated compound, 24 h
# Experimental: Supernatants were harvested from treated cells following 18–24 h of incubation. Supernatants were analyzed using a DuoSet TNFα ELISA (R&D Systems, Minneapolis, MN) or Luminex multiplex panel for analytes TNFα, IL-1β, IL-6, IFNγ, IL-12p70, and IL-23 (R&D Systems) per the manufacturer's instructions. Multiplex analysis was performed using a Luminex 200 instrument (Luminex Corporation) and analyzed with StarStation2.3 software. ELISAs were read on a plate reader at 450 nm and cytokine concentration was calculated by fitting the standard curve OD values to a 4-parameter logistical model using curve fitting software (XLfit, IDBS, Alameda, CA).
# Next, investigation into activity of the alpha-branched TDE compounds was extended to include both human and murine monocytic cell lines, THP-1 and RAW264.7, respectively. These cell lines have previously been reported as responsive to the Mincle receptor agonists TDM and TDB ([30], [31]).
# Figure 3 TNFα production from human THP-1 cells in response to stimulation with synthetic αTDE compounds. The indicated compounds were dissolved in 50% isopropanol/isooctane, serially diluted in vehicle and then dried to the bottom of a tissue culture plate. THP-1 cells were applied to the compound-coated plates and incubated at 37°C; supernatant was harvested 24 h later and analyzed for TNFα via ELISA (A-E). Results from the 200 μg/ml concentration vs. each compounds acyl chain length are shown in (F). Data points are average of at least two independent experiments ± SD.
# BALB/c mice = experiment: Splenocyte restimulation with M72 and intracellular cytokine staining of CD4/CD8 T cells after vaccination; type: in vivo, mouse; conditions: 0.125 μg antigen plus 2, 10, or 50 nmol liposomal adjuvant, i.m. two times, spleens 5 days post-secondary
# Experimental: Animal studies were carried out in an OLAW and AAALAC accredited vivarium in accordance with University of Montana's IACUC guidelines for the care and use of laboratory animals. Groups of 10–14 BALB/c mice were vaccinated intramuscularly with 0.125 μg M72 antigen and indicated concentrations of various CLR adjuvant candidates (liposomal formulations) in 50 μl total volume per injection. After 14 days, blood and serum samples were collected and a secondary vaccination was administered. At day 19 (5 days post-secondary vaccination), 3–6 mice per group were euthanized and spleens were harvested the assessment of cell-mediated immunity. At day 28 (14 days post booster vaccination) the remaining 7 mice in each group were euthanized and blood was collected for the measurement of M72 specific humoral immunity.
# Spleens were harvested from vaccinated mice 5 days after secondary injections and splenocytes were harvested by disruption of the spleens through a 100 μm filter. Red blood cells were lysed by incubation with red blood cell lysis buffer (Sigma) for 5 min followed by washing in 1x PBS. Cells were plated in a 96 well plate at 5 × 10^6 cells/well in 200 μL complete RPMI1640 media. Cells were incubated with 1 μg/mL M72 antigen for […] at 37°C. After 7 h, GolgiPlug (Brefeldin A, BD Biosciences) was added to each well and incubated at 37°C for a further 12 h. Following incubation, cells were stained with the cell surface antibodies against CD3e PerCP-Cy5.5 (Tonbo Biosciences, 145-2C11), CD4a APC-Cy7 (Tonbo Biosciences, RM4-5) and CD8a PE-Cy7 (Tonbo Biosciences, 53–6.7) and viability stain (Ghost 510, Tonbo Biosciences). Cells were treated with cytofix/cytoperm (BD) and stained with anti-IFNγ PE-CF594 (BD, XMG1.2), anti-IL2 FITC (Biolegend, JES6-5H4), anti-IL-5 PE (BD, TRFK5), anti-IL17A BV421 (Biolegend, TC11-18H10.1), and anti-TNFα APC (Invitrogen, MP6-XT22). Data was collected using an LSRII flow cytometer (BD) and analyzed using FlowJo 10.0 software (TreeStar). Splenocytes were gated on live, single cells, then CD3+ to identify all T cells, then gated as CD4+CD8- to identify CD4 T cells or CD4-CD8+ to identify CD8 T cells. Gates for intracellular cytokine positive CD4 or CD8 T cells are set based on re-stimulation of naïve splenocytes. Gating strategies for the detection of antigen specific CD4+ and CD8+ T cells are outlined in Supplemental Figure 3.
# Figure 7 Induction of IL-17 producing CD4+ and CD8+ T cells from an αTDE adjuvanted M72 vaccine. BALB/c mice, 10 per group, were immunized two times i.m. with 0.125 μg antigen plus 2, 10, or 50 nmol of the indicated adjuvant. Spleens were harvested from a subset of 3 mice per group at 5 days post-secondary vaccination. Splenocytes were restimulated with 1 μg/mL whole antigen and transport inhibitors followed by surface staining for CD3, CD4, and CD8 and then intracellular cytokine staining. Data represent percentage of live, CD3^+/CD4^+, left, or CD3^+/CD8^+, right, cells that are also positive for IL-17A upon stimulation.
# Figure 8 B16 liposomes biases a Th17/Th2 adaptive immune response. BALB/c mice, 14 per group, were immunized twice, 14 days apart, i.m with 0.1, 1, or 10 μg of M72 antigen plus either blank DDA:DSPC liposome or B16 loaded (10 nmol final dose) liposome. (A,B) M72-specific serum antibody titers at 14 days post-secondary vaccination. (C–F) Spleens were harvested from mice at 5 days post-secondary vaccination and restimulated with 1 μg/mL whole antigen and transport inhibitors followed by surface staining for CD3, CD4, and CD8 and then intracellular cytokine staining. (C) Percent of live, CD3^+/CD4^+/IL5+ cells, (D) Percent of live, CD3^+/CD8^+/IFNγ+ cells, (E) Percent of live, CD3^+/CD4^+/IL17+ cells, and (F) Percent of live, CD3^+/CD8^+/IL17+ cells. ^*p < 0.05, ^**p < 0.01, ^****p < 0.001.
# Supplemental Figure 10. Production of IFNɣ, IL-2, IL-5 or TNFα by CD4 or CD8 T cells in response to various CLR compounds. […]
structure (smiles),measurement,setting,value
"CCCCCCCCCCCCCCCCCCCCCC(=O)OC[C@H]1O[C@H](O[C@H]2O[C@H](COC(=O)CCCCCCCCCCCCCCCCCCCCC)[C@@H](O)[C@H](O)[C@H]2O)[C@H](O)[C@@H](O)[C@@H]1O [TDB, trehalose dibehenate, reference compound]",TNFα induction from THP-1 cells (in words),THP-1 cells,activity at the highest concentrations tested
same,IL-17+ CD4+ and CD8+ T cells (Th17 response) after M72 re-stimulation,BALB/c mice,able to boost Th17
